# Experiments:
# [1] = Whole body retention of antibody complexes of EDTA-111In or 57Co compounds (Example 4); assay type: in vivo, Balb/C mice; conditions: WC3A11 complex
# Description: EDTA and BABE-EDTA were complexed with ^111 In and bleomycin, with ^57 Co, as in Example 1. […] BLEDTA-IV-^111 In, a bleomycin-EDTA-In compound containing EDTA linked to bleomycin through a dithiobutane spacer, was prepared as described in co-owned patent application for "Bleomycin Conjugates and Methods". TBEDTA-^111 In was prepared as in Example 1. WC3A11 antibody complexes were formed by incubating the WC3A11 antibody from Example 2 with a selected ^111 In cpm amount of (a) ^111 -In-EDTA, (b) ^111 In-BABE-EDTA, (c) BLEDTA-II-^111 In, (d) BL-^57 Co. (e) BLEDTA-IV-^111 In, or (f) TBEDTA-^111 In.
# Each of the antibody/EDTA-^111 In or ^57 Co complexes (a)-(f) was subjected intravenously to each of three Balb/C mice, in an amount between about 200-800 μg per animal. Twenty-four hours after the injection, the total body radioactivity of ^111 In was measured in a dual-probe scintillation counter. The values were averaged for the three animals. […] By contrast, the antibody complexes of compounds (e) and (f) (both of which contain a thiobutane-BABE-EDTA moiety) were retained to more than 30% after 24 hours, at an initial dose of about 180 μg antibody, and to greater than about 70% of an initial antibody dose of about 800 μg antibody.
# [2] = tested on: KHJJ adenocarcinoma tumor; assay: Tumor targeting, first study: antibody complexed with L-benzyl-EDTA-111In, 24 h biodistribution; assay type: in vivo, Balb/C mice
# Description: (§1) This example examines the targeting of ^111 In in animal tumors, according to the method of the invention. Balb/C mice were prepared with a KHJJ adenocarcinoma tumor implants in the flank. A hybridoma cell line designated CHA255 specific against L-benzyl-EDTA-In was prepared by methods similar to those described in Example II, using as an immunogen, an L-benzyl-EDTA-In (para-nitrophenolbenzyl-EDTA-In) group derivatized in KLH.
# In a first study, a group of three mice were initially injected with 100 ug (about 0.7 nmole) of the CHA255 antibody complexed with L-benzyl-EDTA-^111 In compound. Twenty four hours later, the animals were sacrificed, and examined for ^111 In levels in the blood, tumor, and several organs which are listed in Table 3A. The radioactivity levels were calculated in terms of percent of total radioactivity per gram tissue. The average of values obtained for three mice, and standard deviations, are given to the middle column in Table 2A. Tumor/organ (T/O) ratios are shown at the right the table.
# [3] = tested on: KHJJ adenocarcinoma tumor; assay: Tumor targeting, second study: antibody 23 h prior to hapten, 1 h post hapten biodistribution; assay type: in vivo, Balb/C mice
# Description: as §1
# In a second study, the antibody alone was administered to each of three animals, and allowed to localize for 23 hours, at which time the L-benzyl-EDTA-^111 In compound was administered. One hour later the animals were sacrificed and again examined for radioactivity levels.
# [4] = tested on: KHJJ adenocarcinoma tumor; assay: Tumor targeting, third study: antibody, clearing agent, then hapten; 3 h post hapten biodistribution; assay type: in vivo, Balb/C mice
# Description: as §1
# A third study examined the degree of tumor localization achievable by an antibody, antibody clearance, and compound administration regimen carried out in accordance with the invention. The CHA255 antibody was administered to each of three animals and allowed to localize for 24 hours, at which time the antibody was cleared from the bloodstream by administration of a clearing agent consisting of transferring derivatized with L-benzyl-EDTA-In. One hour later, the L-benzyl-EDTA-^111 In compound was administered, and the animals sacrificed after an additional three hours.
# [5] = Whole body retention of radionuclide 24 hours after antibody/chelate complex (Table 1); assay type: in vivo; conditions: WC3A11 antibody; vs less tightly bound In-TBEDTA
# [6] = tested on: KHJJ adenocarcinoma tumor; assay: Tumor imaging and biodistribution after WC3A11, clearing agent and radiolabelled chelate (Example 6); assay type: in vivo, Balb/c mice
# Description: Three hours later, a whole-body scan, using computer digitation of the whole-body image, was performed on the animals.
# avidin = avidin (Gallus gallus, UniProt P02701); assay: Binding of biotinylated chelate to avidin
# From the text: To illustrate a derivatization reaction used in preparing a epitopic compound, the above bifunctional chelates can be coupled to a biotin moiety, to produce of epitopic biotin chelate capable of specific, high-affinity binding to avidin. In one coupling method, a bifunctional chelate having a free-end amine is reacted with an N-hydroxysuccinamide (NHS) ester of biotin, to link the biotin to the chelate amine through an amide linkage. The chelate amine may be formed from BABE-EDTA, for example, by amination in concentrated aqueous ammonium, and the NHS biotin ester is commercially available. […] Other active agents can be biotinylated or derivatized with carbohydrate or haptenic molecules in a similar manner.
# Chain of avidin (P02701 25-152): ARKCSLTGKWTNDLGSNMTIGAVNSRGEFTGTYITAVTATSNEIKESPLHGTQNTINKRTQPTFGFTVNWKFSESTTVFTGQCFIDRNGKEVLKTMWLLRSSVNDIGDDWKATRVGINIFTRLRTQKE
smiles,measurement,setting,value
O=C([O-])CN(CC(=O)[O-])CC(Cc1ccc(NC(=O)CSCCCCS)cc1)N(CC(=O)[O-])CC(=O)[O-].[111In+3] (stereo not shown) [TBEDTA-^111 In],"retained after 24 hours, about 180 μg antibody",[1]; initial dose about 180 μg antibody,more than 30%
same,"retained after 24 hours, about 800 μg antibody",[1]; initial dose about 800 μg antibody,greater than 70%
O=C([O-])CN(CC(=O)[O-])CC(Cc1ccccc1)N(CC(=O)[O-])CC(=O)[O-].[111In+3] [L-benzyl-EDTA-^111 In],radioactivity remaining in blood and localized in tumor (in words),"[2]; 24 hours, Table 2A","a large percentage of radioactivity remained in the blood, although high amounts were also tumor-localized"
same,"24 Hr Conc, Blood","[2]; Hapten-Ab complex (CHA255), 24 h, blood",13.41 ± 1.48 %/gm
same,"24 Hr Conc, Bone","[2]; Hapten-Ab complex (CHA255), 24 h, bone",1.42 ± 0.22 %/gm
same,"24 Hr Conc, Gut","[2]; Hapten-Ab complex (CHA255), 24 h, gut",2.07 ± 1.42 %/gm
same,"24 Hr Conc, Heart","[2]; Hapten-Ab complex (CHA255), 24 h, heart",3.23 ± 0.48 %/gm
same,"24 Hr Conc, Kidneys","[2]; Hapten-Ab complex (CHA255), 24 h, kidneys",3.73 ± 0.81 %/gm
same,"24 Hr Conc, Liver","[2]; Hapten-Ab complex (CHA255), 24 h, liver",5.76 ± 0.86 %/gm
same,"24 Hr Conc, Lungs","[2]; Hapten-Ab complex (CHA255), 24 h, lungs",6.50 ± 0.91 %/gm
same,"24 Hr Conc, Muscle","[2]; Hapten-Ab complex (CHA255), 24 h, muscle",1.18 ± 0.16 %/gm
same,"24 Hr Conc, Skin","[2]; Hapten-Ab complex (CHA255), 24 h, skin",2.35 ± 1.19 %/gm
same,"24 Hr Conc, Spleen","[2]; Hapten-Ab complex (CHA255), 24 h, spleen",2.50 ± 0.37 %/gm
same,"24 Hr Conc, Tumor","[2]; Hapten-Ab complex (CHA255), 24 h, tumor",11.26 ± 1.40 %/gm
same,"T/O Ratio, Blood","[2]; Hapten-Ab complex, 24 h, tumor/blood",0.8
same,"T/O Ratio, Bone","[2]; Hapten-Ab complex, 24 h, tumor/bone",8.0
same,"T/O Ratio, Gut","[2]; Hapten-Ab complex, 24 h, tumor/gut",7.4
same,"T/O Ratio, Heart","[2]; Hapten-Ab complex, 24 h, tumor/heart",3.5
same,"T/O Ratio, Kidneys","[2]; Hapten-Ab complex, 24 h, tumor/kidneys",3.1
same,"T/O Ratio, Liver","[2]; Hapten-Ab complex, 24 h, tumor/liver",2.0
same,"T/O Ratio, Lungs","[2]; Hapten-Ab complex, 24 h, tumor/lungs",1.7
same,"T/O Ratio, Muscle","[2]; Hapten-Ab complex, 24 h, tumor/muscle",9.6
same,"T/O Ratio, Skin","[2]; Hapten-Ab complex, 24 h, tumor/skin",5.7
same,"T/O Ratio, Spleen","[2]; Hapten-Ab complex, 24 h, tumor/spleen",4.5
same,"Conc 1 Hr Post Hapten, Blood","[3]; Ab 23 Hr prior to hapten, 1 h, blood",24.01 ± 0.80 %/gm
same,"Conc 1 Hr Post Hapten, Bone","[3]; Ab 23 Hr prior to hapten, 1 h, bone",1.57 ± 0.09 %/gm
same,"Conc 1 Hr Post Hapten, Gut","[3]; Ab 23 Hr prior to hapten, 1 h, gut",1.51 ± 0.19 %/gm
same,"Conc 1 Hr Post Hapten, Heart","[3]; Ab 23 Hr prior to hapten, 1 h, heart",5.40 ± 0.49 %/gm
same,"Conc 1 Hr Post Hapten, Kidneys","[3]; Ab 23 Hr prior to hapten, 1 h, kidneys",5.87 ± 0.81 %/gm
same,"Conc 1 Hr Post Hapten, Liver","[3]; Ab 23 Hr prior to hapten, 1 h, liver",6.35 ± 0.50 %/gm
same,"Conc 1 Hr Post Hapten, Lungs","[3]; Ab 23 Hr prior to hapten, 1 h, lungs",9.72 ± 0.24 %/gm
same,"Conc 1 Hr Post Hapten, Muscle","[3]; Ab 23 Hr prior to hapten, 1 h, muscle",1.44 ± 0.16 %/gm
same,"Conc 1 Hr Post Hapten, Skin","[3]; Ab 23 Hr prior to hapten, 1 h, skin",1.60 ± 0.20 %/gm
same,"Conc 1 Hr Post Hapten, Spleen","[3]; Ab 23 Hr prior to hapten, 1 h, spleen",3.03 ± 0.27 %/gm
same,"Conc 1 Hr Post Hapten, Tumor","[3]; Ab 23 Hr prior to hapten, 1 h, tumor",4.08 ± 0.51 %/gm
same,"T/O Ratio, Blood","[3]; Ab 23 Hr prior to hapten, 1 h, tumor/blood",0.17
same,"T/O Ratio, Bone","[3]; Ab 23 Hr prior to hapten, 1 h, tumor/bone",2.59
same,"T/O Ratio, Gut","[3]; Ab 23 Hr prior to hapten, 1 h, tumor/gut",2.73
same,"T/O Ratio, Heart","[3]; Ab 23 Hr prior to hapten, 1 h, tumor/heart",0.76
same,"T/O Ratio, Kidneys","[3]; Ab 23 Hr prior to hapten, 1 h, tumor/kidneys",0.70
same,"T/O Ratio, Liver","[3]; Ab 23 Hr prior to hapten, 1 h, tumor/liver",0.64
same,"T/O Ratio, Lungs","[3]; Ab 23 Hr prior to hapten, 1 h, tumor/lungs",0.42
same,"T/O Ratio, Muscle","[3]; Ab 23 Hr prior to hapten, 1 h, tumor/muscle",2.84
same,"T/O Ratio, Skin","[3]; Ab 23 Hr prior to hapten, 1 h, tumor/skin",2.57
same,"T/O Ratio, Spleen","[3]; Ab 23 Hr prior to hapten, 1 h, tumor/spleen",1.36
same,tumor uptake and tumor/organ uptake ratios (in words),[3]; compared with coadministration of antibody and In compound,lower levels of tumor uptake and lower tumor/organ uptake ratios
same,"Conc 3 Hrs Post Hapten, Blood","[4]; Ab 25 Hr, blocking agent 1 Hr prior to hapten, 3 h, blood",0.95 ± 0.44 %/gm
same,"Conc 3 Hrs Post Hapten, Bone","[4]; Ab 25 Hr, blocking agent 1 Hr prior to hapten, 3 h, bone",1.50 ± 0.37 %/gm
same,"Conc 3 Hrs Post Hapten, Gut","[4]; Ab 25 Hr, blocking agent 1 Hr prior to hapten, 3 h, gut",2.66 ± 0.61 %/gm
same,"Conc 3 Hrs Post Hapten, Heart","[4]; Ab 25 Hr, blocking agent 1 Hr prior to hapten, 3 h, heart",0.92 ± 0.29 %/gm
same,"Conc 3 Hrs Post Hapten, Kidneys","[4]; Ab 25 Hr, blocking agent 1 Hr prior to hapten, 3 h, kidneys",1.10 ± 0.16 %/gm
same,"Conc 3 Hrs Post Hapten, Liver","[4]; Ab 25 Hr, blocking agent 1 Hr prior to hapten, 3 h, liver",0.87 ± 0.39 %/gm
same,"Conc 3 Hrs Post Hapten, Lungs","[4]; Ab 25 Hr, blocking agent 1 Hr prior to hapten, 3 h, lungs",2.55 ± 0.24 %/gm
same,"Conc 3 Hrs Post Hapten, Muscle","[4]; Ab 25 Hr, blocking agent 1 Hr prior to hapten, 3 h, muscle",3.48 ± 0.77 %/gm
same,"Conc 3 Hrs Post Hapten, Skin","[4]; Ab 25 Hr, blocking agent 1 Hr prior to hapten, 3 h, skin",4.86 ± 0.45 %/gm
same,"Conc 3 Hrs Post Hapten, Spleen","[4]; Ab 25 Hr, blocking agent 1 Hr prior to hapten, 3 h, spleen",0.21 ± 0.04 %/gm
same,"Conc 3 Hrs Post Hapten, Tumor","[4]; Ab 25 Hr, blocking agent 1 Hr prior to hapten, 3 h, tumor",7.72 ± 1.35 %/gm
same,In levels in blood and internal organs relative to tumor (in words),[4]; after clearing agent,In levels in the blood and internal organs was greatly reduced relative to the levels concentrated in the tumor
same,"T/O Ratio, Blood","[4]; blocking agent 1 Hr prior to hapten, 3 h, tumor/blood",9.20
same,"T/O Ratio, Bone","[4]; blocking agent 1 Hr prior to hapten, 3 h, tumor/bone",5.40
same,"T/O Ratio, Gut","[4]; blocking agent 1 Hr prior to hapten, 3 h, tumor/gut",2.97
same,"T/O Ratio, Heart","[4]; blocking agent 1 Hr prior to hapten, 3 h, tumor/heart",8.71
same,"T/O Ratio, Kidneys","[4]; blocking agent 1 Hr prior to hapten, 3 h, tumor/kidneys",7.04
same,"T/O Ratio, Liver","[4]; blocking agent 1 Hr prior to hapten, 3 h, tumor/liver",10.21
same,"T/O Ratio, Lungs","[4]; blocking agent 1 Hr prior to hapten, 3 h, tumor/lungs",3.02
same,"T/O Ratio, Muscle","[4]; blocking agent 1 Hr prior to hapten, 3 h, tumor/muscle",2.33
same,"T/O Ratio, Skin","[4]; blocking agent 1 Hr prior to hapten, 3 h, tumor/skin",1.61
same,"T/O Ratio, Spleen","[4]; blocking agent 1 Hr prior to hapten, 3 h, tumor/spleen",38.03
O=C([O-])CN(CC(=O)[O-])CC(Cc1ccc(NC(=O)CSCCCCS)cc1)N(CC(=O)[O-])CC(=O)[O-].[Co+3] (stereo not shown) [Co-TBEDTA],whole body retention (in words),[5],substantially greater retention
same,"whole-body scan, label localization at 3 hours (in words)","[6]; FIG. 3A, 3 hours","localization of the label in the kidneys (K), bladder (B) and flank tumor (T)"
same,whole-body scan at 24 hours (in words),"[6]; FIG. 3B, 24 hours",absence of label in the bladder. Good tumor imaging with low background is still achieved
same,tumor uptake and tumor-to-organ ratios (in words),"[6]; Table 3, 3 hours","high tumor-to-organ ratios for blood, and other internal organs"
O=C(O)CN(CC(=O)O)CC(Cc1ccc(NC(=O)CNC(=O)CCCC[C@@H]2SC[C@@H]3NC(=O)N[C@@H]32)cc1)N(CC(=O)O)CC(=O)O (stereo partly shown) [biotinylated glycineamidobenzyl EDTA],binding to avidin (in words),avidin,bind with high affinity to avidin

# From patent US4863713A, “Method and system for administering therapeutic and diagnostic agents” (priority 1986, dated 1989)
